Results taken from US10585087B2, “Method for evaluating and selecting agent for suppressing odors of sulfide compounds” (KAO CORPORATION, priority 2015, dated 2020).

Experiments:
[1] = Sensory test of odor-suppressing effect for sulfide compounds; assay type: in vivo; settings: for odor intensity of DMTS in sensory test: 0.01% (v/v) DMTS and 0.1% (v/v) test substance in mineral oil, 11 evaluators, FIG. 7B; for odor intensity of DMDS in sensory test: 0.1% (v/v) DMDS and 0.1% (v/v) test substance in mineral oil, 10 evaluators, FIG. 7A
Description: For each of DMDS, cis-4-heptenal, and 1,4-cineol, a 0.1% (v/v) solution in mineral oil was prepared. For DMTS, a 0.01% (v/v) solution in mineral oil was prepared. Two cotton balls were put in a 20 mL glass bottle (Maruemu Corporation, No. 6), and one cotton ball was impregnated with 30 μL of the DMDS or DMTS solution, and the other cotton ball was impregnated with 30 μL a solution of one of the OR4S2 antagonists. The glass bottle containing the cotton balls was covered with a lid, and left to stand at 37° C. for 1 hour, and thereafter used as a test sample for a sensory test. Glass bottles containing only a cotton ball impregnated with the DMDS or DMTS solution were prepared as reference samples, and a glass bottle containing only a cotton ball impregnated with mineral oil (Vehicle) was prepared as a control sample.
A sensory test was performed in a single-blinded mode with 10 evaluators for DMDS and 11 evaluators for DMTS. The test was initiated after two o'clock pm, which was 1.5 hours or longer after a meal. To prevent diffusion of a smell, the test was performed essentially under a fume hood. To eliminate the influence of adaptation to odors of sulfide compounds, the evaluators were appropriately checked for the intensity of recognition to the odor of DMDS or DMTS in the test, and rested as necessary. The evaluators were separated into two groups, and one group evaluated the odor-suppressing effect for DMDS or DMTS with respect to cis-4-heptenal and 1,4-cineol, in the order presented, and the other group evaluated it with respect to 1,4-cineol and cis-4-heptenal, in the order presented. Each test sample was replaced with another one after evaluation by each of three evaluators.
In evaluation of odors of test samples, the following criteria in five grades were set for each evaluator: “odor of DMDS (or DMTS) was 1: unidentifiable, 2: perceivable, 3: easily identifiable, 4: strong, 5: intolerably strong”, and the evaluators rated the odor intensity of DMDS (or DMTS) for each test sample in nine grades from 1.0 to 5.0 at an interval of 0.5, where the odor intensity of single DMDS (or DMTS) was assumed as 3. The average value of the evaluation results by the evaluators was determined.

olfactory receptor OR4S2 [2] = biological target: T1, olfactory receptor OR4S2 (Homo sapiens, UniProt Q8NH73); test: Luciferase reporter gene assay: suppression of OR4S2 response to DMDS or DMTS by test substance; assay type: cell-based; settings: for response (Fold increase) of OR4S2 to DMTS in the presence of test substance: 300 μM DMTS, test substance 100 μM, FIG. 6; for response (Response %) of OR4S2 to DMDS in the presence of test substance: 1 mM DMDS, test substance 0 to 3000 μM, FIG. 5
T1 construct: expressed in transfected cells; host or cells: HEK293
T1 sequence (Q8NH73 1-311): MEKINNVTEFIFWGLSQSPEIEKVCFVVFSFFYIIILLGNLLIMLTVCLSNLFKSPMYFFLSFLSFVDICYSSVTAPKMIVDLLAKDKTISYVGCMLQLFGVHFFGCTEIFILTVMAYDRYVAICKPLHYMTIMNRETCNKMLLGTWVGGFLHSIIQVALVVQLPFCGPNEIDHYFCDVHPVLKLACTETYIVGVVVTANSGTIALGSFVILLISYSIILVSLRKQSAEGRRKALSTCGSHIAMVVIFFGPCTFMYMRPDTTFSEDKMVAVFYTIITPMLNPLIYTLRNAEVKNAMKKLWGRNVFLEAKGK
Description: By using the same procedure as in Example 1 (1) to (3), HEK293 cells expressing OR4S2 (SEQ ID NO: 2) were prepared. The response of the olfactory receptor to DMDS (the value fLuc/hRluc) was measured in the presence and absence of a test substance by using luciferase reporter gene assay in accordance with the procedure in Example 1 (4). The value fLuc/hRluc induced by a stimulus of single DMDS, (X), the value fLuc/hRluc for cells without a stimulus of DMDS, (Y), and the value fLuc/hRluc induced by a co-stimulus of DMDS and a test substance, (Z), were determined, and the intensity of the response (Response (%)) of the receptor to DMDS in the presence of a test substance was determined by using the following formula. Response (%)=(Z−Y)/(X−Y)×100 The experiment was performed independently three times, and the average value of the experiments was determined. The concentration of DMDS to be added to a culture was set at 1 mM, and the concentration of a test substance to be added was changed in the range of from 0 to 3000 μM.
For the response to DMTS, the value fLuc/hRluc to a stimulus of single DMTS, (X′), was divided by the value fLuc/hRluc for cells without a stimulus of DMTS, (Y), and the value obtained by the division, (X′/Y), was set as a value of the response to DMTS (Fold increase). To compare the effect of a test substance on the response to DMTS, the value fLuc/hRluc induced by a co-stimulus of DMTS and a test substance, (Z′), was similarly divided by the value fLuc/hRluc for cells without a stimulus, (Y), to calculate (Z′/Y) as Fold increase. The experiment was performed independently three times, and the average value of the experiments was determined. The concentration of DMTS to be added to a culture was set at 300 μM, and the concentration of a test substance to be added was set at 100 μM.

olfactory receptor OR4S2 [3] = biological target: T1, olfactory receptor OR4S2; test: Luciferase reporter gene assay: response of olfactory receptor to sulfide compound; assay type: cell-based; settings: for response of olfactory receptor OR4S2 (fold increase) in screen of 428 olfactory receptors / concentration dependence of the response of OR4S2: HEK293 cells expressing OR4S2; for response of olfactory receptor OR4S2 (fold increase) in screen of 428 olfactory receptors: 100 μM sulfide compound, FIG. 1; for concentration dependence of the response of OR4S2: different concentrations, FIG. 2
Text: A human olfactory receptor was cloned by using the PCR method with human genomic DNA (G1521: Promega Corporation) as a template on the basis of sequence information registered in GenBank. Each gene amplified through the PCR method was incorporated into a pENTR vector (Invitrogen) in accordance with the manual, and recombined, by utilizing the NotI and AscI sites present in the pENTR vector, with a pME18S vector at the NotI and AscI sites produced in the downstream of the Flag-Rho tag sequence of the pME18S vector.
An RTP1S gene (SEQ ID NO: 3) encoding RTP1S (SEQ ID NO: 4) was incorporated into the pME18S vector at the EcoRI and XhoI sites thereof.
HEK293 cells expressing any one of 428 human olfactory receptors were produced. A reaction solution with a composition shown in Table 2 was prepared and left to stand in a clean bench for 15 minutes, and then added to each well of a 96-well plate (BD Biosciences). Subsequently, 90 μL of HEK293 cells (3×10^5 cells/cm^2) was seeded in each well, and cultured in an incubator retained at 37° C. and 5% CO2 for 24 hours. As a control, cells with conditions for no expression of an olfactory receptor (Mock) were prepared and used in an experiment.
An olfactory receptor expressed on HEK293 cells increases the intracellular cAMP level through conjugation with the intracellular Gαs followed by resulting activation of adenylate cyclase. For smell response measurement in this study, luciferase reporter gene assay was used in which increase of the intracellular cAMP level is monitored as an emission value derived from a firefly luciferase gene (fluc2P-CRE-hygro). Transgenesis was simultaneously performed by using a product with a sea pansy luciferase gene fused to the downstream of the CMV promoter (hRluc-CMV), and the resultant was used as an internal standard to correct errors of transgenesis efficiency and the number of cells.
The medium was removed from the culture prepared in the above (3), and 75 μL of a solution containing a sulfide compound prepared with DMEM (NACALAI TESQUE, INC.) was added. The sulfide compound was 100 μM of dimethyl disulfide (DMDS) or dimethyl trisulfide (DMTS). The cells were cultured in a CO2 incubator for 3 hours to allow the luciferase gene to be sufficiently expressed in the cells. Measurement of the activity of luciferase was performed by using a Dual-Glo™ luciferase assay system (Promega Corporation) in accordance with an operation manual of the product. For each stimulus condition, the value fLuc/hRluc was calculated by dividing the emission value derived from firefly luciferase by the emission value derived from sea pansy luciferase. The value fLuc/hRluc derived from firefly luciferase and induced by a stimulus of a sulfide compound was divided by the value fLuc/hRluc for cells without a stimulus of a sulfide compound to calculate a fold increase, and the fold increase was used as an indicator of intensity of response.

response (Fold increase) of OR4S2 to DMTS in the presence of test substance (olfactory receptor OR4S2 [2])	Structure (SMILES)	odor intensity of DMTS in sensory test [1]	odor intensity of DMDS in sensory test [1]	response (Response %) of OR4S2 to DMDS in the presence of test substance (olfactory receptor OR4S2 [2])	response of olfactory receptor OR4S2 (fold increase) in screen of 428 olfactory receptors (olfactory receptor OR4S2 [3])	concentration dependence of the response of OR4S2 (olfactory receptor OR4S2 [3])	further results
suppressed the response of OR4S2 to DMTS	CC(C)C12CCC(C)(CC1)O2 [1,4-cineol, 1,4-Cineole]	suppressed the odor intensity	suppressed the odor intensity	suppressed the response of OR4S2 to DMDS in a concentration-dependent manner			
	CSSC [DMDS, Dimethyl disulfide]				exhibits a specific response	in a concentration-dependent manner	
	CSSSC [DMTS, Dimethyl trisulfide]				exhibits a specific response	in a concentration-dependent manner	
suppressed the response of OR4S2 to DMTS	CC/C=C\CCC=O [cis-4-Heptenal, (Z)-Hept-4-enal]	suppressed the odor intensity	suppressed the odor intensity	suppressed the response of OR4S2 to DMDS in a concentration-dependent manner			
	CSC [dimethyl sulfide (DMS), Dimethylsulfide]						response of OR4S2 (olfactory receptor OR4S2 [3]; concentration of 1 mM and 3 mM, FIG. 3): responded
	CS [methylmercaptan, Methylmercaptan]						response of OR4S2 (olfactory receptor OR4S2 [3]; 3 mM, FIG. 4): did not respond
